# Measured values as given in patent US12077503B2, “Substituted cyclic amides and their use as herbicides” (FMC CORPORATION, priority 2015, dated 2024).
# Columns and labels:
# Assay type in all cases: in vivo
# [1] = system: ducksalad (Heteranthera limosa); assay: Test B flooded paddy test; settings: Heteranthera limosa, 250 g ai/ha, Flood; 0 to 100 scale where 0 is no effect and 100 is complete control; read-out: Ducksalad plant response rating
# Method in brief: (§1)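 Response scored visually against untreated controls, 0 = no effect and 100 = complete control, 13–15 d after treatment in the greenhouse. Compounds added to paddy water held 3 cm above soil surface. Treatment given at 2-leaf stage.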
# [2] = system: rice (Oryra sativa); assay: Test B flooded paddy test; settings: Oryza sativa, 250 g ai/ha, Flood; 0 to 100 scale where 0 is no effect and 100 is complete control; read-out: Rice plant response rating
# Method in brief: as §1
# [3] = system: sedge, umbrella (small-flower umbrella sedge, Cyperus difformis); assay: Test B flooded paddy test; settings: Cyperus difformis, 250 g ai/ha, Flood; 0 to 100 scale where 0 is no effect and 100 is complete control; read-out: Sedge, Umbrella plant response rating
# Method in brief: as §1
# [4] = system: barnyardgrass (Echinochloa crus-galli); assay: Test B flooded paddy test; settings: Echinochloa crus-galli, 250 g ai/ha, Flood; 0 to 100 scale where 0 is no effect and 100 is complete control; read-out: Barnyardgrass plant response rating
# Method in brief: as §1
# [5] = system: Kochia (Kochia scoparia); assay: Test A preemergence; settings: Bassia scoparia, pre-emergence, 240 h, Preemergence; for pest or weed control at 31 g/ha: 31 g ai/ha, 0 to 100 scale where 0 is no effect and 100 is complete control, read-out: Kochia plant response rating; for pest or weed control at 125 g/ha: 125 g ai/ha, visual injury rating after approximately 10 d, read-out: Kochia plant response rating (0 to 100 scale, 0 is no effect, 100 is complete control)
# Method in brief: (§2)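 Visual injury, scored on a 0–100 scale relative to untreated controls, was recorded about 10 d after application. Treatments were a preemergence soil spray over planted seeds or a postemergence spray on plants at the one- to two-leaf stage, 2 to 10 cm tall, all in loam soil–sand blend in the greenhouse.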
# [6] = system: giant foxtail (Setaria faberii); assay: Test A preemergence; settings: Setaria faberi, pre-emergence, 240 h, Preemergence; for pest or weed control at 125 g/ha: 125 g ai/ha, visual injury rating after approximately 10 d, read-out: Foxtail, Giant plant response rating (0 to 100 scale, 0 is no effect, 100 is complete control); for pest or weed control at 31 g/ha: 31 g ai/ha, 0 to 100 scale (0 no effect, 100 complete control), read-out: Plant response rating, Foxtail, Giant
# Method in brief: as §2
# [7] = system: ragweed (common ragweed, Ambrosia elatior); assay: Test A preemergence; settings: Ambrosia artemisiifolia, pre-emergence, 240 h, Preemergence; for pest or weed control at 31 g/ha: 31 g ai/ha, 0 to 100 scale where 0 is no effect and 100 is complete control, read-out: Ragweed plant response rating; for pest or weed control at 125 g/ha: 125 g ai/ha, visual injury rating after approximately 10 d, read-out: Ragweed plant response rating (0 to 100 scale, 0 is no effect, 100 is complete control)
# Method in brief: as §2
# [8] = system: ryegrass, Italian (Italian ryegrass, Lolium multiflorum); assay: Test A preemergence; settings: Lolium multiflorum, pre-emergence, 240 h, Preemergence; for pest or weed control at 31 g/ha: 31 g ai/ha, 0 to 100 scale where 0 is no effect and 100 is complete control, read-out: Ryegrass, Italian plant response rating; for pest or weed control at 125 g/ha: 125 g ai/ha, visual injury rating after approximately 10 d, read-out: Ryegrass, Italian plant response rating (0 to 100 scale, 0 is no effect, 100 is complete control)
# Method in brief: as §2
# [9] = system: barnyardgrass (Echinochloa crus-galli); assay: Test A preemergence; settings: Echinochloa crus-galli, pre-emergence, 240 h, Preemergence; for pest or weed control at 125 g/ha: 125 g ai/ha, visual injury rating after approximately 10 d, read-out: Barnyardgrass plant response rating (0 to 100 scale, 0 is no effect, 100 is complete control); for pest or weed control at 31 g/ha: 31 g ai/ha, 0 to 100 scale (0 no effect, 100 complete control), read-out: Plant response rating, Barnyardgrass
# Method in brief: as §2
# [10] = system: pigweed (Amaranthus retroflexus); assay: Test A preemergence; settings: Amaranthus retroflexus, pre-emergence, 240 h, Preemergence; for pest or weed control at 31 g/ha: 31 g ai/ha, 0 to 100 scale where 0 is no effect and 100 is complete control, read-out: Pigweed plant response rating; for pest or weed control at 125 g/ha: 125 g ai/ha, visual injury rating after approximately 10 d, read-out: Pigweed plant response rating (0 to 100 scale, 0 is no effect, 100 is complete control)
# [11] = system: Kochia (Kochia scoparia); assay: Test A postemergence; settings: Bassia scoparia, post-emergence, 240 h, Postemergence, read-out: Plant response rating, Kochia; for pest or weed control at 125 g/ha: 125 g ai/ha, visual injury after approximately 10 d, 0 to 100 scale where 0 is no effect and 100 is complete control; for pest or weed control at 31 g/ha: 31 g ai/ha, visual injury after approx. 10 d, 0 to 100 scale, 0 no effect, 100 complete control
# Method in brief: as §2
# [12] = system: giant foxtail (Setaria faberii); assay: Test A postemergence; settings: Setaria faberi, post-emergence, 240 h, Postemergence, read-out: Plant response rating, Foxtail, Giant; for pest or weed control at 125 g/ha: 125 g ai/ha, visual injury after approximately 10 d, 0 to 100 scale where 0 is no effect and 100 is complete control; for pest or weed control at 31 g/ha: 31 g ai/ha, visual injury after approx. 10 d, 0 to 100 scale, 0 no effect, 100 complete control
# Method in brief: as §2
# [13] = system: wheat (Triticum aestivum); assay: Test A postemergence; settings: Triticum aestivum, post-emergence, 240 h, Postemergence, read-out: Plant response rating, Wheat; for plant injury at 125 g/ha: 125 g ai/ha, visual injury after approximately 10 d, 0 to 100 scale where 0 is no effect and 100 is complete control; for plant injury at 31 g/ha: 31 g ai/ha, visual injury after approx. 10 d, 0 to 100 scale, 0 no effect, 100 complete control
# Method in brief: as §2
# [14] = system: ragweed (common ragweed, Ambrosia elatior); assay: Test A postemergence; settings: Ambrosia artemisiifolia, post-emergence, 240 h, Postemergence, read-out: Plant response rating, Ragweed; for pest or weed control at 125 g/ha: 125 g ai/ha, visual injury after approximately 10 d, 0 to 100 scale where 0 is no effect and 100 is complete control; for pest or weed control at 31 g/ha: 31 g ai/ha, visual injury after approx. 10 d, 0 to 100 scale, 0 no effect, 100 complete control
# Method in brief: as §2
# [15] = system: corn (Zea mays); assay: Test A postemergence; settings: Zea mays, post-emergence, 240 h, Postemergence; for Corn plant response rating (crop injury, 0 = no effect, 100 = complete kill) at 125 g/ha: 125 g ai/ha, visual injury after approximately 10 d, 0 to 100 scale where 0 is no effect and 100 is complete control; for Corn plant response rating (crop injury, 0 = no effect, 100 = complete kill) at 31 g/ha: 31 g ai/ha, visual injury after approx. 10 d, 0 to 100 scale, 100 complete control
# Method in brief: as §2
# [16] = system: ryegrass, Italian (Italian ryegrass, Lolium multiflorum); assay: Test A postemergence; settings: Lolium multiflorum, post-emergence, 240 h, Postemergence, read-out: Plant response rating, Ryegrass, Italian; for pest or weed control at 125 g/ha: 125 g ai/ha, visual injury after approximately 10 d, 0 to 100 scale where 0 is no effect and 100 is complete control; for pest or weed control at 31 g/ha: 31 g ai/ha, visual injury after approx. 10 d, 0 to 100 scale, 0 no effect, 100 complete control
# Method in brief: as §2
# [17] = system: barnyardgrass (Echinochloa crus-galli); assay: Test A postemergence; settings: Echinochloa crus-galli, post-emergence, 240 h, Postemergence, read-out: Plant response rating, Barnyardgrass; for pest or weed control at 125 g/ha: 125 g ai/ha, visual injury after approximately 10 d, 0 to 100 scale where 0 is no effect and 100 is complete control; for pest or weed control at 31 g/ha: 31 g ai/ha, visual injury after approx. 10 d, 0 to 100 scale, 0 no effect, 100 complete control
# Method in brief: as §2
# [18] = system: pigweed (Amaranthus retroflexus); assay: Test A postemergence; settings: Amaranthus retroflexus, post-emergence, 240 h, Postemergence, read-out: Plant response rating, Pigweed; for pest or weed control at 125 g/ha: 125 g ai/ha, visual injury after approximately 10 d, 0 to 100 scale where 0 is no effect and 100 is complete control; for pest or weed control at 31 g/ha: 31 g ai/ha, visual injury after approx. 10 d, 0 to 100 scale, 0 no effect, 100 complete control
# Method in brief: as §2
# [19] = system: Galium (catchweed bedstraw, Galium aparine); assay: Test A postemergence; settings: Galium, post-emergence, 240 h, Postemergence, read-out: Plant response rating, Galium; for pest or weed control at 125 g/ha: 125 g ai/ha, visual injury after approximately 10 d, 0 to 100 scale where 0 is no effect and 100 is complete control; for pest or weed control at 31 g/ha: 31 g ai/ha, visual injury after approx. 10 d, 0 to 100 scale, 0 no effect, 100 complete control
# Method in brief: as §2
# [20] = system: blackgrass (Alopecurus myosuroides); assay: Test A postemergence; settings: Alopecurus myosuroides, post-emergence, 240 h, Postemergence, read-out: Plant response rating, Blackgrass; for pest or weed control at 125 g/ha: 125 g ai/ha, visual injury after approximately 10 d, 0 to 100 scale where 0 is no effect and 100 is complete control; for pest or weed control at 31 g/ha: 31 g ai/ha, visual injury after approx. 10 d, 0 to 100 scale, 0 no effect, 100 complete control
# Method in brief: as §2
SMILES,pest or weed control at 250 g/ha [1],pest or weed control at 250 g/ha [2],pest or weed control at 250 g/ha [3],pest or weed control at 250 g/ha [4],pest or weed control at 31 g/ha [5],pest or weed control at 125 g/ha [5],pest or weed control at 125 g/ha [6],pest or weed control at 31 g/ha [6],pest or weed control at 31 g/ha [7],pest or weed control at 125 g/ha [7],pest or weed control at 31 g/ha [8],pest or weed control at 125 g/ha [8],pest or weed control at 125 g/ha [9],pest or weed control at 31 g/ha [9],pest or weed control at 31 g/ha [10],pest or weed control at 125 g/ha [10],pest or weed control at 125 g/ha [11],pest or weed control at 31 g/ha [11],pest or weed control at 125 g/ha [12],pest or weed control at 31 g/ha [12],other results
O=C(Nc1cccc(F)c1F)[C@H]1C(=O)N(O)CC[C@@H]1c1ccccc1 [Compound 1007],0%,0%,0%,0%,0%,0%,0%,0%,0%,0%,0%,0%,0%,0%,0%,0%,0%,0%,0%,0%,"plant injury at 125 g/ha [13]: 0%; plant injury at 31 g/ha [13]: 0%; pest or weed control at 125 g/ha [14]: 0%; pest or weed control at 31 g/ha [14]: 0%; Corn plant response rating (crop injury, 0 = no effect, 100 = complete kill) at 125 g/ha [15]: 0%; Corn plant response rating (crop injury, 0 = no effect, 100 = complete kill) at 31 g/ha [15]: 0%; pest or weed control at 125 g/ha [16]: 0%; pest or weed control at 31 g/ha [16]: 0%; pest or weed control at 125 g/ha [17]: 0%; pest or weed control at 31 g/ha [17]: 0%; pest or weed control at 125 g/ha [18]: 0%; pest or weed control at 31 g/ha [18]: 0%; pest or weed control at 125 g/ha [19]: 0%; pest or weed control at 31 g/ha [19]: 0%; pest or weed control at 125 g/ha [20]: 0%; pest or weed control at 31 g/ha [20]: 0%"
CN1CC[C@H](c2ccccc2C(F)(F)F)[C@@H](C(=O)Nc2ccccc2C(F)(F)F)C1=O [Compound 1008],95%,0%,0%,0%,0%,0%,0%,0%,0%,0%,0%,0%,0%,0%,0%,0%,0%,0%,0%,0%,"plant injury at 125 g/ha [13]: 0%; plant injury at 31 g/ha [13]: 0%; pest or weed control at 125 g/ha [14]: 0%; pest or weed control at 31 g/ha [14]: 0%; Corn plant response rating (crop injury, 0 = no effect, 100 = complete kill) at 125 g/ha [15]: 0%; Corn plant response rating (crop injury, 0 = no effect, 100 = complete kill) at 31 g/ha [15]: 0%; pest or weed control at 125 g/ha [16]: 0%; pest or weed control at 31 g/ha [16]: 0%; pest or weed control at 125 g/ha [17]: 0%; pest or weed control at 31 g/ha [17]: 0%; pest or weed control at 125 g/ha [18]: 0%; pest or weed control at 31 g/ha [18]: 0%; pest or weed control at 125 g/ha [19]: 0%; pest or weed control at 31 g/ha [19]: 0%; pest or weed control at 125 g/ha [20]: 0%; pest or weed control at 31 g/ha [20]: 0%"
